In patent publication US20170304388A1, “NEW INDICATION OF CARDIOVASCULAR DRUGS FOR PREPARATION OF CANCER INHIBITION PHARMACEUTICAL COMPOSITION” (LAUNX BIOMEDICAL CO., LTD., priority 2014, published 2017):

Key:
Format in all cases: cell-based
[1] = test system: A375 (Amelanotic Melanoma); experiment: Cell viability analysis (WST-1), A375; conditions: Table 4, repeated experiments, drug 10 μM; for survival rate (viability) of cancer cells, A375: 72 hours, WST-1
[2] = test system: HCT116 (Colorectal Carcinoma); experiment: Cell viability analysis (WST-1), HCT116; conditions: Table 4, repeated experiments, drug 10 μM; for survival rate (viability) of cancer cells, HCT116: 72 hours, WST-1
[3] = test system: HepG2 (Hepatocellular Carcinoma); experiment: Cell viability analysis (WST-1), HepG2; conditions: Table 4, repeated experiments, drug 10 μM; for survival rate (viability) of cancer cells, HepG2: 72 hours, WST-1
[4] = test system: HeLa (Cervix Adenocarcinoma); experiment: Cell viability analysis (WST-1), HeLa; conditions: Table 4, repeated experiments, drug 10 μM; for survival rate (viability) of cancer cells, HeLa: 72 hours, WST-1
[5] = test system: AGS (Gastric Adenocarcinoma); experiment: Cell viability analysis (WST-1), AGS; conditions: Table 4, repeated experiments, drug 10 μM; for survival rate (viability) of cancer cells, AGS: 72 hours, WST-1
[6] = test system: H1650 (Lung Adenocarcinoma); experiment: Cell viability analysis (WST-1), H1650; conditions: Table 4, repeated experiments, drug 10 μM; for survival rate (viability) of cancer cells, H1650: 72 hours, WST-1
[7] = test system: MKN-45 (Gastric Adenocarcinoma); experiment: Cell viability analysis (WST-1), MKN-45; conditions: Table 4, repeated experiments, drug 10 μM; for survival rate (viability) of cancer cells, MKN-45: 72 hours, WST-1
[8] = test system: TSGH-8301 (Urinary Bladder Carcinoma); experiment: Cell viability analysis (WST-1), TSGH-8301; conditions: Table 4, repeated experiments, drug 10 μM; for survival rate (viability) of cancer cells, TSGH-8301: 72 hours, WST-1
[9] = test system: A549 (Lung Adenocarcinoma); experiment: Cell viability analysis (WST-1), A549; conditions: Table 4, repeated experiments, drug 10 μM; for survival rate (viability) of cancer cells, A549: 72 hours, WST-1
[10] = test system: MCF7 (Mammary Gland, Adenocarcinoma); experiment: Cell viability analysis (WST-1), MCF7; conditions: Table 4, repeated experiments, drug 10 μM; for survival rate (viability) of cancer cells, MCF-7: 72 hours, WST-1
[11] = test system: PC3 (Prostate Adenocarcinoma); experiment: Cell viability analysis (WST-1), PC3; conditions: Table 4, repeated experiments, drug 10 μM; for survival rate (viability) of cancer cells, PC-3: 72 hours, WST-1
[12] = test system: LoVo (Colorectal Adenocarcinoma); experiment: Cell viability analysis (WST-1), LoVo; conditions: Table 4, repeated experiments, drug 10 μM; for survival rate (viability) of cancer cells, LoVo: 72 hours, WST-1
T24 = experiment: Cell viability analysis (WST-1), T24; conditions: Table 4, repeated experiments, drug 10 μM; for survival rate (viability) of cancer cells, T24: 72 hours
Procedure, shortened: (§1)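 3000 cells/well; drug 10 μM, 72 h; diluted WST-1 (medium:stock 9:1), 37° C, 30–90 min; OD450 nm read, survival rate calculated.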

Hep3B = experiment: Cell viability analysis (WST-1), Hep3B; conditions: Table 4, repeated experiments, drug 10 μM; for survival rate (viability) of cancer cells, Hep3B: 72 hours
Procedure, shortened: as §1

C-33A = experiment: Cell viability analysis (WST-1), C-33A; conditions: Table 4, repeated experiments, drug 10 μM; for survival rate (viability) of cancer cells, C-33A: 72 hours
Procedure, shortened: as §1

MDA-MB231 = experiment: Cell viability analysis (WST-1), MDA-MB231; conditions: Table 4, repeated experiments, drug 10 μM; for survival rate (viability) of cancer cells, MDA-MB231: 72 hours
NIH-OVCAR-3 = experiment: Cell viability analysis (WST-1), NIH-OVCAR-3; conditions: Table 4, repeated experiments, drug 10 μM; for survival rate (viability) of cancer cells, NIH-OVCAR-3: 72 hours
Procedure, shortened: as §1

TOV-21G = experiment: Cell viability analysis (WST-1), TOV-21G; conditions: Table 4, repeated experiments, drug 10 μM; for survival rate (viability) of cancer cells, TOV-21G: 72 hours
Procedure, shortened: as §1

AsPC-1 = experiment: Cell viability analysis (WST-1), AsPC-1; conditions: Table 4, repeated experiments, drug 10 μM; for survival rate (viability) of cancer cells, AsPC-1: 72 hours
Procedure, shortened: as §1

BxPC-3 = experiment: Cell viability analysis (WST-1), BxPC-3; conditions: Table 4, repeated experiments, drug 10 μM; for survival rate (viability) of cancer cells, BxPC-3: 72 hours
Procedure, shortened: as §1

SAS = experiment: Cell viability analysis (WST-1), SAS; conditions: Table 4, repeated experiments, drug 10 μM; for survival rate (viability) of cancer cells, SAS: 72 hours
Procedure, shortened: as §1

U2OS = experiment: Cell viability analysis (WST-1), U2OS; conditions: Table 4, repeated experiments, drug 10 μM; for survival rate (viability) of cancer cells, U2OS: 72 hours
Procedure, shortened: as §1

BCC = experiment: Cell viability analysis (WST-1), BCC; conditions: Table 4, repeated experiments, drug 10 μM; for survival rate (viability) of cancer cells, BCC: 72 hours
786-O = experiment: Cell viability analysis (WST-1), 786-O; conditions: Table 4, repeated experiments, drug 10 μM; for survival rate (viability) of cancer cells, 786-O: 72 hours
Procedure, shortened: as §1

cancer cell lines = experiment: Growth inhibitory effects on the panel of cancer cell lines; conditions: drug 10 μM, 72 hours, WST-1
Excerpt: Subculture the different types of cancer cells.
For cell viability analysis, the cardiovascular drugs include peripheral vasodilator reaming enhancer, angiotensin converting agent inhibitor, hypotension and shock therapeutic agent, diuretic, antiarrhythmic agent, antiarralciton drug, antihypertensive agent, anticoagulant thrombolytic agent, cardiac tonic, intravenous (hemorrhoids) therapeutic agent, are used to test the inhibition effect of cancer cell.

O=C([O-])C[C@H](O)C[C@H](O)/C=C/c1c(C2CC2)nc2ccccc2c1-c1ccc(F)cc1.O=C([O-])C[C@H](O)C[C@H](O)/C=C/c1c(C2CC2)nc2ccccc2c1-c1ccc(F)cc1.[Ca+2] [Pitavastatin calcium (Livalo), Pitavastatin calcium]
survival rate (viability) of cancer cells, A375 [1]: 22.09
survival rate (viability) of cancer cells, HCT116 [2]: 35.07
survival rate (viability) of cancer cells, HepG2 [3]: 98.06
survival rate (viability) of cancer cells, HeLa [4]: 36.91
survival rate (viability) of cancer cells, AGS [5]: 19.17
survival rate (viability) of cancer cells, H1650 [6]: 49.9822
survival rate (viability) of cancer cells, MKN-45 [7]: 61.3
survival rate (viability) of cancer cells, TSGH-8301 [8]: 48.92
survival rate (viability) of cancer cells, A549 [9]: 89.44
survival rate (viability) of cancer cells, MCF-7 [10]: 83.57
survival rate (viability) of cancer cells, PC-3 [11]: 27.54
survival rate (viability) of cancer cells, LoVo [12]: 65.15
survival rate (viability) of cancer cells, T24 (T24): 52.63
survival rate (viability) of cancer cells, Hep3B (Hep3B): 96.34
survival rate (viability) of cancer cells, C-33A (C-33A): 74.75
survival rate (viability) of cancer cells, MDA-MB231 (MDA-MB231): 39.0358
survival rate (viability) of cancer cells, NIH-OVCAR-3 (NIH-OVCAR-3): 61.41
survival rate (viability) of cancer cells, TOV-21G (TOV-21G): 21.79
survival rate (viability) of cancer cells, AsPC-1 (AsPC-1): 51.36
survival rate (viability) of cancer cells, BxPC-3 (BxPC-3): 59.78
survival rate (viability) of cancer cells, SAS (SAS): 38.0374
survival rate (viability) of cancer cells, U2OS (U2OS): 43.44
survival rate (viability) of cancer cells, BCC (BCC): 26.77
survival rate (viability) of cancer cells, 786-O (786-O): 16.46
inhibition effect on different cancer cell lines (in words) (cancer cell lines): significant inhibition effect

CCC[C@H](N[C@@H](C)C(=O)N1[C@H](C(=O)O)C[C@@H]2CCCC[C@@H]21)C(=O)OCC [Perindopril Erbumine (Aceon), Perindopril Erbumine]
viability at 10 µM ([1]; Homo sapiens, A-375, 72 h, WST-1, read-out: survival rate (viability) of cancer cells, A375): 83.2%
viability at 10 µM ([2]; Homo sapiens, HCT-116, 72 h, WST-1, read-out: survival rate (viability) of cancer cells, HCT116): 65%
viability at 10 µM ([3]; Homo sapiens, HepG2, 72 h, WST-1, read-out: survival rate (viability) of cancer cells, HepG2): 99.4%
viability at 10 µM ([4]; Homo sapiens, HeLa, 72 h, WST-1, read-out: survival rate (viability) of cancer cells, HeLa): 66.7%
viability at 10 µM ([5]; 72 h, WST-1, read-out: survival rate (viability) of cancer cells, AGS): 87.1%
viability at 10 µM ([6]; Homo sapiens, NCI-H1650, 72 h, WST-1, read-out: survival rate (viability) of cancer cells, H1650): 78.6%
viability at 10 µM ([7]; Homo sapiens, MKN-45, 72 h, WST-1, read-out: survival rate (viability) of cancer cells, MKN-45): 73.8%
viability at 10 µM ([8]; 72 h, WST-1, read-out: survival rate (viability) of cancer cells, TSGH-8301): 105%
viability at 10 µM ([9]; Homo sapiens, A549, 72 h, WST-1, read-out: survival rate (viability) of cancer cells, A549): 71.9%
viability at 10 µM ([10]; Homo sapiens, MCF7, 72 h, WST-1, read-out: survival rate (viability) of cancer cells, MCF-7): 75.6%
viability at 10 µM ([11]; 72 h, WST-1, read-out: survival rate (viability) of cancer cells, PC-3): 81.1%
viability at 10 µM ([12]; Homo sapiens, LoVo, 72 h, WST-1, read-out: survival rate (viability) of cancer cells, LoVo): 83.5%
viability at 10 µM (T24; Homo sapiens, T-24, 72 h, read-out: survival rate (viability) of cancer cells, T24): 87.9%
viability at 10 µM (Hep3B; Homo sapiens, Hep3B, 72 h, read-out: survival rate (viability) of cancer cells, Hep3B): 99.5%
viability at 10 µM (C-33A; Homo sapiens, C-33-A, 72 h, read-out: survival rate (viability) of cancer cells, C-33A): 90.9%
viability at 10 µM (MDA-MB231; Homo sapiens, MDA-MB-231, 72 h, read-out: survival rate (viability) of cancer cells, MDA-MB231): 63.8%
viability at 10 µM (NIH-OVCAR-3; Homo sapiens, OVCAR-3, 72 h, read-out: survival rate (viability) of cancer cells, NIH-OVCAR-3): 79.6%
viability at 10 µM (TOV-21G; Homo sapiens, TOV21G, 72 h, read-out: survival rate (viability) of cancer cells, TOV-21G): 71.2%
viability at 10 µM (AsPC-1; Homo sapiens, ASPC1, 72 h, read-out: survival rate (viability) of cancer cells, AsPC-1): 64.2%
viability at 10 µM (BxPC-3; Homo sapiens, BXPC-3, 72 h, read-out: survival rate (viability) of cancer cells, BxPC-3): 50%
viability at 10 µM (SAS; 72 h, read-out: survival rate (viability) of cancer cells, SAS): 52.5%
viability at 10 µM (U2OS; Homo sapiens, U2OS, 72 h, read-out: survival rate (viability) of cancer cells, U2OS): 74%
viability at 10 µM (BCC; BCC, 72 h, read-out: survival rate (viability) of cancer cells, BCC): 58.7%
viability at 10 µM (786-O; Homo sapiens, 786-0, 72 h, read-out: survival rate (viability) of cancer cells, 786-O): 86.2%
inhibition effect on different cancer cell lines (in words) (cancer cell lines): significant inhibition effect

CC(C)c1c(C(=O)Nc2ccccc2)c(-c2ccccc2)c(-c2ccc(F)cc2)n1CC[C@@H](O)C[C@@H](O)CC(=O)[O-].CC(C)c1c(C(=O)Nc2ccccc2)c(-c2ccccc2)c(-c2ccc(F)cc2)n1CC[C@@H](O)C[C@@H](O)CC(=O)[O-].[Ca+2] [Atorvastatin calcium (Lipitor), Atorvastatin calcium]
survival rate (viability) of cancer cells, A375 [1]: 23.01
survival rate (viability) of cancer cells, HCT116 [2]: 82.55
survival rate (viability) of cancer cells, HepG2 [3]: 95.92
survival rate (viability) of cancer cells, HeLa [4]: 78.64
survival rate (viability) of cancer cells, AGS [5]: 31.48
survival rate (viability) of cancer cells, H1650 [6]: 69.55
survival rate (viability) of cancer cells, MKN-45 [7]: 84.18
survival rate (viability) of cancer cells, TSGH-8301 [8]: 70.59
survival rate (viability) of cancer cells, A549 [9]: 90.1462
survival rate (viability) of cancer cells, MCF-7 [10]: 79.08
survival rate (viability) of cancer cells, PC-3 [11]: 56.4832
survival rate (viability) of cancer cells, LoVo [12]: 103.0307
survival rate (viability) of cancer cells, T24 (T24): 78.47
survival rate (viability) of cancer cells, Hep3B (Hep3B): 91.86
survival rate (viability) of cancer cells, C-33A (C-33A): 96.95
survival rate (viability) of cancer cells, MDA-MB231 (MDA-MB231): 47.84
survival rate (viability) of cancer cells, NIH-OVCAR-3 (NIH-OVCAR-3): 98.3
survival rate (viability) of cancer cells, TOV-21G (TOV-21G): 34.04
survival rate (viability) of cancer cells, AsPC-1 (AsPC-1): 81.1
survival rate (viability) of cancer cells, BxPC-3 (BxPC-3): 81.03
survival rate (viability) of cancer cells, SAS (SAS): 76.29
survival rate (viability) of cancer cells, U2OS (U2OS): 86.25
survival rate (viability) of cancer cells, BCC (BCC): 41.49
survival rate (viability) of cancer cells, 786-O (786-O): 32.54
inhibition effect on different cancer cell lines (in words) (cancer cell lines): significant inhibition effect
